Experimental data: ChEMBL document CHEMBL3763130, “Recent advances in the development of dual VEGFR and c-Met small molecule inhibitors as anticancer drugs” (Eur J Med Chem, 2016)

What was measured:
[1] = molecular target: Vascular endothelial growth factor receptor 1 (Homo sapiens, UniProt P17948); test: Inhibition of VEGFR-1 (unknown origin) by AlphaScreen assay
[2] = molecular target: Vascular endothelial growth factor receptor 3 (Homo sapiens, UniProt P35916); test: Inhibition of VEGFR-3 (unknown origin) by AlphaScreen assay
[3] = Cytotoxicity against HUVEC assessed as inhibition of VEGF-independent growth after 72 hrs by CellTiter-Glo method; type: cell-based; details: human, HUVEC cells
[4] = molecular target: Vascular endothelial growth factor receptor 2 (Homo sapiens, UniProt P35968); test: Inhibition of VEGFR-2 autophosphorylation in HUVEC after 1 hr by Western blot analysis; type: cell-based
[5] = Cytotoxicity against human SNU5 cells assessed as inhibition of tumour growth after 3 days by WST-8 assay; type: functional, cell-based; details: SNU-5, 72 h
[6] = Cytotoxicity against human Hs 746T cells assessed as inhibition of tumour growth after 3 days by WST-8 assay; type: functional, cell-based; details: Hs746T, 72 h
[7] = Cytotoxicity against human EBC1 cells assessed as inhibition of tumour growth after 3 days by WST-8 assay; type: functional, cell-based; details: EBC-1, 72 h
[8] = Cytotoxicity against human MKN45 cells assessed as inhibition of tumour growth after 3 days by WST-8 assay; type: functional, cell-based; details: MKN-45, 72 h
HUVEC [9] = test: Antiangiogenic activity in HUVEC assessed as inhibition of VEGF induced cell proliferation after 3 days by WST-1 assay; type: functional, cell-based; details: Homo sapiens, 72 h
HUVEC [10] = test: Antiangiogenic activity in HUVEC assessed as inhibition of HGF induced cell proliferation after 3 days by WST-1 assay; type: functional, cell-based; details: Homo sapiens, 72 h
HUVEC [11] = test: Antiangiogenic activity in HUVEC assessed as inhibition of bFGF induced cell proliferation after 3 days by WST-1 assay; type: functional, cell-based; details: Homo sapiens, 72 h
[12] = molecular target: Hepatocyte growth factor receptor (Homo sapiens, UniProt P08581); test: Inhibition of c-Met (unknown origin)
[13] = Antitumor activity against mouse B16F10 cells implanted in naive mouse assessed as reduction in metastatic tumor burden at 30 mg/kg, po qd by Zeiss stereoscopic analysis relative to control; type: functional, B16-F10; design: scale not given: the % may be the effect or the level left
[14] = Antitumor activity against mouse B16F10 cells implanted in naive mouse assessed as reduction in metastatic tumor burden at 100 mg/kg, po qd by Zeiss stereoscopic analysis relative to control; type: functional, B16-F10; design: scale not given: the % may be the effect or the level left
[15] = Antitumor activity against mouse B16F10 cells implanted in naive mouse assessed as reduction in lung surface tumor burden at 30 mg/kg, po qd by Zeiss stereoscopic analysis relative to control; type: functional, B16-F10; design: scale not given: the % may be the effect or the level left
[16] = Antitumor activity against mouse B16F10 cells implanted in naive mouse assessed as reduction in lung surface tumor burden at 100 mg/kg, po qd by Zeiss stereoscopic analysis relative to control; type: functional, B16-F10; design: scale not given: the % may be the effect or the level left
[17] = Antitumor activity against mouse B16F10 cells implanted in naive mouse assessed as tumour growth inhibition at 30 mg/kg, po qd by Zeiss stereoscopic analysis relative to control; type: functional; details: B16-F10, po, read-out: TGI
[18] = Antitumor activity against mouse B16F10 cells implanted in naive mouse assessed as tumour growth inhibition at 100 mg/kg, po qd by Zeiss stereoscopic analysis relative to control; type: functional; details: B16-F10, po, read-out: TGI
[19] = molecular target: T1, Tyrosine-protein kinase receptor UFO (Homo sapiens, UniProt P30530); test: Inhibition of Axl (unknown origin)
T1 sequence (P30530 whole entry): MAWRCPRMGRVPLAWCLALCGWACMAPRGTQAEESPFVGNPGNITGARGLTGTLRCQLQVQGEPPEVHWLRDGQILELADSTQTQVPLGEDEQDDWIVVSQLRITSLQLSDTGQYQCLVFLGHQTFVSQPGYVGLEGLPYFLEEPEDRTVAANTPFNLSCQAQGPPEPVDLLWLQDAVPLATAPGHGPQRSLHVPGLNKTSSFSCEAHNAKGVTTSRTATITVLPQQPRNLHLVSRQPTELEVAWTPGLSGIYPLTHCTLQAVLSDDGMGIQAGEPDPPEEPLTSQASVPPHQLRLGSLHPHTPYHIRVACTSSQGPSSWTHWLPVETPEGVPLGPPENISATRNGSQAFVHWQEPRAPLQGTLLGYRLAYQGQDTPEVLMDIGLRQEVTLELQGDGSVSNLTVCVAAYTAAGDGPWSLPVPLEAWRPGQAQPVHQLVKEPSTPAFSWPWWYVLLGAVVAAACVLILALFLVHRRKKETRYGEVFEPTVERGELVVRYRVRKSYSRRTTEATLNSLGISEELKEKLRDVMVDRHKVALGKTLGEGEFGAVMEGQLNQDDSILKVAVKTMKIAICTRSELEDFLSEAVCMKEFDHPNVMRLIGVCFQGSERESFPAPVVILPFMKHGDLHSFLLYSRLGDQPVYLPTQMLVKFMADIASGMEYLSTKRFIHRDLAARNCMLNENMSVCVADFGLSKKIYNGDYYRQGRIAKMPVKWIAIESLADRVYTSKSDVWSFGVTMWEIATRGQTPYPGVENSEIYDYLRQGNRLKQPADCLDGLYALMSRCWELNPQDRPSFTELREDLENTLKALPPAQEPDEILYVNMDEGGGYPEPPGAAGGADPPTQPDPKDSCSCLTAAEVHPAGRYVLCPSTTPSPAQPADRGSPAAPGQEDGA

[20] = molecular target: Macrophage-stimulating protein receptor (Homo sapiens, UniProt Q04912); test: Inhibition of Ron (unknown origin)
[21] = molecular target: T2, Receptor-type tyrosine-protein kinase FLT3 (Homo sapiens, UniProt P36888); test: Inhibition of Flt-3 (unknown origin)
T2 sequence (P36888 whole entry): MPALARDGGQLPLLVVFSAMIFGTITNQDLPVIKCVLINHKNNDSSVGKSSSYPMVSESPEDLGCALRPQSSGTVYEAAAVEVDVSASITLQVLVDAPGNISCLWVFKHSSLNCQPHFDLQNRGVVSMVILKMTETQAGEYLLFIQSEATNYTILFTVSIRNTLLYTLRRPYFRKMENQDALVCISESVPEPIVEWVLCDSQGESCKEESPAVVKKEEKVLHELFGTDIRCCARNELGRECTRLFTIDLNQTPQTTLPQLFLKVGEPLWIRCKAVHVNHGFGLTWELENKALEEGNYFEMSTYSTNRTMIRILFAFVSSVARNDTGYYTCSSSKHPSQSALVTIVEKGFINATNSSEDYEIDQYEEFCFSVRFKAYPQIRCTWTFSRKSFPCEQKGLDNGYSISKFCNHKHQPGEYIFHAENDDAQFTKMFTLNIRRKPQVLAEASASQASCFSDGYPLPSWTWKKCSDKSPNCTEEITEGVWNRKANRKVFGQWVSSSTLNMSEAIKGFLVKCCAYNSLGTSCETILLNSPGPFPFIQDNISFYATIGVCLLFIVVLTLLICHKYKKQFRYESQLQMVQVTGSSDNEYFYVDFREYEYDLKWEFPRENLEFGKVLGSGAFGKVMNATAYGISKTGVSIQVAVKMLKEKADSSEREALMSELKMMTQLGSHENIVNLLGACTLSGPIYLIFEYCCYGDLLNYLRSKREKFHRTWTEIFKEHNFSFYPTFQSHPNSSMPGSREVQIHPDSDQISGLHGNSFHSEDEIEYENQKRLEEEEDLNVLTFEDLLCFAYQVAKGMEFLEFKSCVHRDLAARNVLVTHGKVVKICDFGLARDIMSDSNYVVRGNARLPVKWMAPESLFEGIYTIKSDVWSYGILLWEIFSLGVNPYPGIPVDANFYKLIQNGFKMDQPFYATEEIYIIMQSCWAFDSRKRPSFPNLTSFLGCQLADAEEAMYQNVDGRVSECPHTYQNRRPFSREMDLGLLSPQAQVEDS

Sequence of Hepatocyte growth factor receptor (P08581 whole entry): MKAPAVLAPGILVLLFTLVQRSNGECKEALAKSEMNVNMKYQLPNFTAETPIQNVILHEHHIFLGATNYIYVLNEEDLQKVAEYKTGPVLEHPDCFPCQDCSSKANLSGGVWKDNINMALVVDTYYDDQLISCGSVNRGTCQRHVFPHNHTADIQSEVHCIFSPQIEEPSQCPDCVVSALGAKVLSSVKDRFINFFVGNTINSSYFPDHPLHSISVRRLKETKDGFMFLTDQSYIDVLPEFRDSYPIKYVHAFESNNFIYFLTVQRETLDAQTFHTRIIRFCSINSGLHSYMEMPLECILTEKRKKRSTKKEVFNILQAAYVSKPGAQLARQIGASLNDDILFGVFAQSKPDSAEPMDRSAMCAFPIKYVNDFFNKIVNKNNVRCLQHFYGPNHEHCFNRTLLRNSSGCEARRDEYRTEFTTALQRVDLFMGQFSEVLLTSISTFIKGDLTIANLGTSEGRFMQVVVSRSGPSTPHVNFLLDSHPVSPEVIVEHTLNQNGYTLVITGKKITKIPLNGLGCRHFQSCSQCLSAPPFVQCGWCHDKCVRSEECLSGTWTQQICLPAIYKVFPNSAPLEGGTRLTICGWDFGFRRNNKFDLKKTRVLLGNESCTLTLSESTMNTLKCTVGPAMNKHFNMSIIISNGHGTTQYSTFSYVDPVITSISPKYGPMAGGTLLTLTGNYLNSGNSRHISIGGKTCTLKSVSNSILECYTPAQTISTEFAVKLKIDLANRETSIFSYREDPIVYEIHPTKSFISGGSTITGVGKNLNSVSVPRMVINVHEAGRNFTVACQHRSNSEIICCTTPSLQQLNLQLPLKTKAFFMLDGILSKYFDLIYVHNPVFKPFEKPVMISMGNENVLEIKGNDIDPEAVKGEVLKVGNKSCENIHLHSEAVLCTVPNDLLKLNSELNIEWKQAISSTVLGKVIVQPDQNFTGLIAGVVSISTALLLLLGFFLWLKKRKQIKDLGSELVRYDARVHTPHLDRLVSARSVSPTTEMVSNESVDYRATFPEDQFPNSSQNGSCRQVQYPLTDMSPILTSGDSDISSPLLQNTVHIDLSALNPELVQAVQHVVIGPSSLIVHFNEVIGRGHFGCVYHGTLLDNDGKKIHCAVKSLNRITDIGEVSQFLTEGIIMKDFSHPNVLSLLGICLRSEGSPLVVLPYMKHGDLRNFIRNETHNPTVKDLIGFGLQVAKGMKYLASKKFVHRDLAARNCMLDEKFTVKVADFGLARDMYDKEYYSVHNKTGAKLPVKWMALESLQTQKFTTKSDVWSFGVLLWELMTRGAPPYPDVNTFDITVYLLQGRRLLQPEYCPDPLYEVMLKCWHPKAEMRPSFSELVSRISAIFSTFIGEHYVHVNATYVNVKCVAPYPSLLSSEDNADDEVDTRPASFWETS
Sequence of Vascular endothelial growth factor receptor 1 (P17948 whole entry): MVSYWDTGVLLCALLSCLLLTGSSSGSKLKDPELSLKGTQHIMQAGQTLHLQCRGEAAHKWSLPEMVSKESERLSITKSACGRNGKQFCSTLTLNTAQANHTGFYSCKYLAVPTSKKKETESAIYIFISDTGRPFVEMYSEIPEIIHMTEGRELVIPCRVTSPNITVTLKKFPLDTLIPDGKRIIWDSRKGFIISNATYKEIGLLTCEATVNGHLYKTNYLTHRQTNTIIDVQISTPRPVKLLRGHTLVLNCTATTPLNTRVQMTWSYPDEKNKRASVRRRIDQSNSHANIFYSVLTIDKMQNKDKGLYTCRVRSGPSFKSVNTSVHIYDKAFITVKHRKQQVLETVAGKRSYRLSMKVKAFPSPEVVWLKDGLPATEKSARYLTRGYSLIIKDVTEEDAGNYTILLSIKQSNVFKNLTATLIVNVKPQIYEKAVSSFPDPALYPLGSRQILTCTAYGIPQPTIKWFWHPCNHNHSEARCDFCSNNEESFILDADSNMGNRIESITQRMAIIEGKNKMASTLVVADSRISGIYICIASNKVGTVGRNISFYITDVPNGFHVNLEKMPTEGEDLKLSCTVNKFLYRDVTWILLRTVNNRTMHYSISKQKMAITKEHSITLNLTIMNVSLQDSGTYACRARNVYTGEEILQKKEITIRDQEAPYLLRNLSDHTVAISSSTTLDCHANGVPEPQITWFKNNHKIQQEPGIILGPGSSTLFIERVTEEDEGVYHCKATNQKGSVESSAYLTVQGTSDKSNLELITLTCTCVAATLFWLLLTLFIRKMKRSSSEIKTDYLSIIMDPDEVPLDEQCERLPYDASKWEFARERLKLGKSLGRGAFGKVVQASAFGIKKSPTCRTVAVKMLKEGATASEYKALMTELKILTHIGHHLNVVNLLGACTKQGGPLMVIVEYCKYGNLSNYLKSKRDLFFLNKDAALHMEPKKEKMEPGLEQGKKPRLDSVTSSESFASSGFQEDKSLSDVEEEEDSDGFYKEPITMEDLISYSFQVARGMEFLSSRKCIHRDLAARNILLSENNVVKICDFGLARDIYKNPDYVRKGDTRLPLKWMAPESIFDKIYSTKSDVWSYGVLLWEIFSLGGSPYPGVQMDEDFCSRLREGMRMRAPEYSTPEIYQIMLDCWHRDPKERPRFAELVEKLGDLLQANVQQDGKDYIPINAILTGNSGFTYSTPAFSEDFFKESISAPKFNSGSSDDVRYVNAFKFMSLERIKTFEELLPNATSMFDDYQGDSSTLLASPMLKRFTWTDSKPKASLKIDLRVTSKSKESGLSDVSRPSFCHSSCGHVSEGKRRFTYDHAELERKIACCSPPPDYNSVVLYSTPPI
Sequence of Vascular endothelial growth factor receptor 2 (P35968 whole entry): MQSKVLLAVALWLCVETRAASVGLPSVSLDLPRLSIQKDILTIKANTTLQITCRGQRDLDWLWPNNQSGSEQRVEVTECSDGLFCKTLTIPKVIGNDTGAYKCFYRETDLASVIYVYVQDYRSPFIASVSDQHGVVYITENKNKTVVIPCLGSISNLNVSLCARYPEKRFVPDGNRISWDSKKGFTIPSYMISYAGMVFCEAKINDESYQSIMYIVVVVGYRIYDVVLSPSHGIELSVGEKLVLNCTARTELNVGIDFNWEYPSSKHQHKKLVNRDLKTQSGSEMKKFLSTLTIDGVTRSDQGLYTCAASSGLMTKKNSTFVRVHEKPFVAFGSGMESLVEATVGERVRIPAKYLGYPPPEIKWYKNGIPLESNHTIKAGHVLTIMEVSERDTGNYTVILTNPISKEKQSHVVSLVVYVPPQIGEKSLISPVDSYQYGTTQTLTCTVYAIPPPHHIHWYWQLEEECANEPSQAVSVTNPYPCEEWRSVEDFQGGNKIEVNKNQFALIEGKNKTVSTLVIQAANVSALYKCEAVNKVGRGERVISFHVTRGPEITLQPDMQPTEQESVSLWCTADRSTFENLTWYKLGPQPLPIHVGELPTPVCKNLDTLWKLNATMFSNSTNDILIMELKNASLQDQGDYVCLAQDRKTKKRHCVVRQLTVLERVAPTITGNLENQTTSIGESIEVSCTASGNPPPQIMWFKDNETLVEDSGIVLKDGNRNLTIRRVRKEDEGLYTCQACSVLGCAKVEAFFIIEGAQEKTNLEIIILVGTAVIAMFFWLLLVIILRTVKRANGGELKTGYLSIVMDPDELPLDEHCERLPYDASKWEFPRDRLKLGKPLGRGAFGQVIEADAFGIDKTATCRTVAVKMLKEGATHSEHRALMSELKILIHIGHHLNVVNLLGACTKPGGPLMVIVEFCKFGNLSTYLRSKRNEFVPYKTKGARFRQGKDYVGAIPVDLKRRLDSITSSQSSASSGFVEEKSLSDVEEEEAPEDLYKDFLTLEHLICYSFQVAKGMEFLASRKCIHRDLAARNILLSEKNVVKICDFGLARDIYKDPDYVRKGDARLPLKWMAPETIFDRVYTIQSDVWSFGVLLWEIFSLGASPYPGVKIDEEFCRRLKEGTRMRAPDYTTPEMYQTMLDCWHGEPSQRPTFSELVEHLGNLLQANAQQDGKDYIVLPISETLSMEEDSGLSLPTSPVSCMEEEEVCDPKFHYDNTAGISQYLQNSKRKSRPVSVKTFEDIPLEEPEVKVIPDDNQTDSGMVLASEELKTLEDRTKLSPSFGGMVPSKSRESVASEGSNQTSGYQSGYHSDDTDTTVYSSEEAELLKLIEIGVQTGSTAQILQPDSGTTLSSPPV

Structure (SMILES): CC1=[N+](c2ccccc2)C(=O)C(C(=O)Nc2ccc(Oc3ccc4nc(NC(=O)C5CC5)cn4c3)c(F)c2)C=C1 (stereo not drawn)
- IC50 [1]: 7.7 nM
- IC50 [2]: 5.5 nM

Structure (SMILES): CNC(=O)c1cc2c(Oc3ccc(NC(=S)NC(=O)Cc4ccccc4)cc3F)ccnc2cc1OC [TAS-115]
- GI50 at 72 h [3]: > 10000 nM

Structure (SMILES): CN1CCN(C2CCN(C(=O)Nc3cc(Oc4ccc(NC(=O)C5(C(=O)Nc6ccc(F)cc6)CC5)c(F)c4)ccn3)CC2)CC1 [GOLVATINIB]
- IC50 [4]: 16 nM
- IC50 [5]: 24 nM
- IC50 [6]: 23 nM
- IC50 [7]: 6.2 nM
- IC50 [8]: 37 nM
- IC50 (HUVEC [9]): 84 nM
- IC50 (HUVEC [10]): 17 nM
- IC50 (HUVEC [11]): > 1000 nM

Structure (SMILES): Cn1cc(-c2ccc3nnc(C(F)(F)c4ccc5ncccc5c4)n3n2)cn1 [JNJ-38877605]
- IC50 [12]: 4 nM

Structure (SMILES): O=C1NC(=O)[C@@H](c2cn3c4c(cccc24)CCC3)[C@@H]1c1c[nH]c2ccccc12 [TIVANTINIB]
- Ki [12]: 355 nM

Structure (SMILES): COc1cc2c(Oc3ccc(NC(=O)C4(C(=O)Nc5ccc(F)cc5)CC4)cc3F)ccnc2cc1OCCCN1CCOCC1 [FORETINIB]
- Activity [13]: 31%
- Activity [14]: 62%
- Activity [15]: 50%
- Activity [16]: 58%
- inhibition in vivo at 30 mg/kg [17]: 64%
- inhibition in vivo at 100 mg/kg [18]: 87%

Structure (SMILES): CN(C[C@@H]1COCCO1)S(=O)(=O)Nc1ccc2ccc3ncc(-c4cnn(C)c4)cc3c(=O)c2c1 [MK-2461]
- IC50 [12]: 0.4 nM

Structure (SMILES): Nc1nccc(Oc2ccc(NC(=O)c3c[nH]cc(-c4ccc(F)cc4)c3=O)cc2F)c1Cl [BMS-794833]
- IC50 [19]: < 3 nM
- IC50 [20]: < 3 nM
- IC50 [21]: < 3 nM
